Experimental data taken from ChEMBL document CHEMBL1201862, “PubChem BioAssay data set” (2004).
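These data come from cells grown in 96-well plates and exposed to compound for 48 hours at five concentrations. Abbreviation: GI50, concentration required for 50% inhibition of growth.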 The source made the active and inactive calls. Cut-off read from the data, not from the text of the source: active = GI50 up to about 1.1 µM and inactive = higher.

How the values were obtained:
Test in all cases: NCI anticancer screen, dose series, 48 h
[1] = tested on: HCT-116
[2] = tested on: TK-10
[3] = tested on: EKVX
[4] = tested on: HT-29
[5] = tested on: OVCAR-8
[6] = tested on: 786-0
[7] = tested on: Malme-3M
[8] = tested on: A498
[9] = tested on: RPMI-8226
[10] = tested on: SF-539
[11] = tested on: UACC-62
[12] = tested on: UACC-257
[13] = tested on: ACHN
[14] = tested on: NCI-H460
[15] = tested on: A549

Measured: GI50

O=[N+]([O-])c1ccc(/C=N/C23CC4CC(CC(C4)C2)C3)cc1
inactive: [1] > 100 µM | [2] > 100 µM | [3] > 100 µM | [4] > 100 µM | [5] > 100 µM | [6] > 100 µM | [7] > 100 µM | [8] > 100 µM | [9] > 100 µM | [10] > 100 µM | [11] > 100 µM | [12] > 100 µM | [13] > 100 µM | [14] > 100 µM

CN(C)/C=C/C(=O)c1cccc(C(=O)/C=C/N(C)C)n1
inactive: [1] > 100 µM | [2] > 100 µM | [3] > 100 µM | [15] > 100 µM | [4] > 100 µM | [5] 80.4 µM | [6] > 100 µM | [7] > 100 µM | [8] > 100 µM | [9] > 100 µM | [10] > 100 µM | [11] > 100 µM | [12] > 100 µM | [13] > 100 µM | [14] > 100 µM

O=C1c2c(c3c4ccccc4n(CC4CO4)c3c3[nH]c4ccccc4c23)C(=O)N1Cc1ccccc1 (stereo not drawn)
inactive: [1] > 100 µM | [2] > 100 µM | [15] > 100 µM | [4] > 100 µM | [5] 48.2 µM | [6] > 100 µM | [7] > 100 µM | [8] 31.9 µM | [9] > 100 µM | [10] 37.1 µM | [11] > 100 µM | [12] > 100 µM | [14] 89.5 µM

N#CCN1C(=O)c2cc([N+](=O)[O-])cc3cc([N+](=O)[O-])cc(c23)C1=O
inactive: [1] 7.18 µM | [2] 27.7 µM | [3] 23.6 µM | [15] 18.6 µM | [4] 16.8 µM | [5] 13.8 µM | [6] 11.8 µM | [7] 14.8 µM | [8] 35.6 µM | [9] 5.51 µM | [10] 14.6 µM | [11] 12.4 µM | [12] 15.1 µM | [13] 13.2 µM | [14] 14.9 µM

O=c1c2ccccc2nc(-c2cccc(Cl)c2)n1NCC1(O)OCC(O)C(O)C1O (stereo not drawn)
inactive: [1] > 100 µM | [3] > 100 µM | [15] > 100 µM | [4] > 100 µM | [5] > 100 µM | [6] > 100 µM | [7] > 100 µM | [8] > 100 µM | [9] 41.1 µM | [10] > 100 µM | [11] > 100 µM | [12] > 100 µM | [13] > 100 µM | [14] > 100 µM

CCOC(=O)CC(C)C1(C(=O)OCC)CCCCC1=O (stereo not drawn)
inactive: [1] 46 µM | [2] > 100 µM | [3] > 100 µM | [15] > 100 µM | [4] > 100 µM | [5] > 100 µM | [6] 55 µM | [7] > 100 µM | [8] > 100 µM | [9] 25.5 µM | [10] > 100 µM | [11] > 100 µM | [12] > 100 µM | [13] > 100 µM | [14] > 100 µM

CN1C(=O)N(c2nc3ccccc3[nH]2)C(C)(C)C1=O
inactive: [1] > 100 µM | [3] > 100 µM | [15] > 100 µM | [4] > 100 µM | [5] > 100 µM | [6] > 100 µM | [7] > 100 µM | [8] > 100 µM | [9] > 100 µM | [10] > 100 µM | [11] > 100 µM | [12] > 100 µM | [13] > 100 µM

COC(=O)N/N=C(/CCC(=O)Nc1ccc(C)c(C)c1)CC(=O)C(C)(C)C
inactive: [2] > 100 µM | [3] > 100 µM | [15] > 100 µM | [4] > 100 µM | [5] > 100 µM | [6] > 100 µM | [7] > 100 µM | [9] > 100 µM | [10] > 100 µM | [11] > 100 µM | [12] > 100 µM | [13] > 100 µM | [14] > 100 µM

CCOC(=O)c1[nH]c(COC(C)=O)c(CCCOC(C)=O)c1CCCOC(C)=O
inactive: [1] > 100 µM | [2] > 100 µM | [3] > 100 µM | [15] > 100 µM | [4] > 100 µM | [5] > 100 µM | [6] > 100 µM | [7] > 100 µM | [8] > 100 µM | [10] > 100 µM | [12] > 100 µM | [13] > 100 µM | [14] > 100 µM

ClC/C=C/COC1CCCCO1 (stereo not drawn)
inactive: [1] > 100 µM | [2] > 100 µM | [3] > 100 µM | [15] > 100 µM | [4] > 100 µM | [5] 57.5 µM | [6] > 100 µM | [7] > 100 µM | [8] > 100 µM | [9] 54.2 µM | [10] > 100 µM | [11] 84.1 µM | [12] 45.7 µM | [13] 60.5 µM | [14] > 100 µM

CC1=CC=C2C(C)(C)CC[C@@H]3OC(=O)[C@H]1[C@]23C
inactive: [1] > 100 µM | [2] > 100 µM | [3] > 100 µM | [15] > 100 µM | [4] > 100 µM | [5] > 100 µM | [6] > 100 µM | [7] > 100 µM | [8] > 100 µM | [10] > 100 µM | [11] > 100 µM | [12] > 100 µM | [13] > 100 µM

O=C1C2C=CC(n3[nH]c(=O)n(Cc4ccccc4)c3=O)CC2C(=O)N1c1cccc(Cl)c1 (stereo not drawn)
inactive: [1] > 100 µM | [2] > 100 µM | [3] > 100 µM | [15] > 100 µM | [4] > 100 µM | [5] > 100 µM | [6] > 100 µM | [7] > 100 µM | [8] > 100 µM | [10] > 100 µM | [11] > 100 µM | [12] > 100 µM | [13] > 100 µM | [14] > 100 µM

OCc1cc2c(cn1)[nH]c1ccc(NCc3ccccc3)cc12
inactive: [1] 16.4 µM | [2] 30.6 µM | [3] 37.1 µM | [15] 28.1 µM | [4] 14.8 µM | [5] 29.4 µM | [6] 25.2 µM | [7] 28.7 µM | [8] 17.8 µM | [9] 11 µM | [10] 30.3 µM | [11] 17.2 µM | [12] 23.3 µM | [13] 20 µM | [14] 24.4 µM

O=C1OC(c2ccccc2)=N/C1=C/NC(Cc1ccccc1)C(=O)O (stereo not drawn)
inactive: [1] > 100 µM | [2] > 100 µM | [3] > 100 µM | [15] > 100 µM | [4] > 100 µM | [5] > 100 µM | [6] > 100 µM | [7] > 100 µM | [8] > 100 µM | [9] > 100 µM | [10] > 100 µM | [11] > 100 µM | [12] > 100 µM | [13] > 100 µM | [14] > 100 µM

N#CC(C#N)=CSc1ccccc1
inactive: [1] 23 µM | [2] 38 µM | [3] 48.2 µM | [15] 19.6 µM | [4] 28.6 µM | [5] 17.8 µM | [6] 16.7 µM | [9] 48 µM | [10] 20 µM | [11] 24.2 µM | [12] 46.2 µM | [13] 30.5 µM | [14] 34 µM

COc1ccc(/C=C/c2nnc(S)[nH]2)cc1OC
inactive: [1] > 100 µM | [2] > 100 µM | [15] > 100 µM | [4] > 100 µM | [5] > 100 µM | [6] > 100 µM | [7] > 100 µM | [8] > 100 µM | [9] > 100 µM | [10] > 100 µM | [11] > 100 µM | [12] > 100 µM | [13] > 100 µM | [14] > 100 µM

Nc1nc2c(ncn2CC(CO)CC(c2ccccc2)P(=O)(O)O)c(=O)[nH]1 (stereo not drawn)
inactive: [1] > 100 µM | [2] > 100 µM | [3] > 100 µM | [15] > 100 µM | [4] > 100 µM | [5] > 100 µM | [6] > 100 µM | [7] > 100 µM | [8] > 100 µM | [9] > 100 µM | [10] > 100 µM | [11] > 100 µM | [12] > 100 µM | [13] > 100 µM | [14] > 100 µM

CC1=CC(=O)CC2(C)CC[C@@H]3C[C@]12OC3(C)C (stereo partly drawn)
inactive: [1] > 100 µM | [2] > 100 µM | [3] > 100 µM | [15] > 100 µM | [4] > 100 µM | [5] > 100 µM | [6] > 100 µM | [7] > 100 µM | [8] > 100 µM | [9] > 100 µM | [10] > 100 µM | [11] > 100 µM | [12] > 100 µM | [13] > 100 µM | [14] > 100 µM

N=C1NC(=O)N2CC12 (stereo not drawn) [IMEXON]
inactive: [2] > 100 µM | [3] > 100 µM | [15] > 100 µM | [4] > 100 µM | [5] > 100 µM | [6] > 100 µM | [7] > 100 µM | [8] > 100 µM | [9] > 100 µM | [10] > 100 µM | [11] > 100 µM | [12] > 100 µM | [13] > 100 µM | [14] > 100 µM
